Assay results taken from PMC6018554, “2-[2-(4-(trifluoromethyl)phenylamino)thiazol-4-yl]acetic acid (Activator-3) is a potent activator of AMPK” (Scientific Reports, 2018).

Experiments:
[1] = test system: panel of 100 protein kinases; assay: Cell-free kinase panel (Kinexus), whole panel; assay type: biochemical; conditions: 10 µM
Procedure: (§1) To determine whether Activator-3 affects the activity of any other protein kinases, we screened it in cell-free assays against a panel of 100 protein kinases (Kinexus, Canada). […] Three kinases, DDR1 (−79%), SRC (−71%) and ALK5 (−61%) were inhibited by Activator-3 by more than 50% at 10 µM.

LKB1 = target: T1, LKB1 (Homo sapiens, UniProt Q15831); assay: Cell-free kinase assay (Kinexus); assay type: biochemical
T1 construct: purchased Kinexus, Canada (screening service)
Procedure: as §1
Table S2: Activity change observed in the LKB1 Kinase tested against Activator-3 at 200μM
Protein Kinase (CPM) (CPM) % Change
Table S3: Evaluating the goodness of the representative structure obtained from MD
simulations using PROCHECK server.
Ramchandran Map No. of resides Percentage
Most favored regions 889 85.8%
Additional allowed regions 128 12.4%
Generously allowed regions 13 1.3%
Disallowed regions 6 0.6%
Non-glycine and non-proline residues 1036 100.0%
Table S4: Heterotrimeric human AMPK crystal structures available in PDB.
PDBID Isoform Organism Inhibitor and/or activator Modifications References
Staurosporine, 108-SEP Lagendorf et al. 20161
5EZV α2β1γ1 Homo sapiens C2Z, C1V, Staurosporine 172-TPO […]

CAMKK2 = target: T2, CAMKK2 (Homo sapiens, UniProt Q96RR4); assay: Cell-free kinase panel (Kinexus); assay type: biochemical
T2 construct: purchased Kinexus, Canada (screening service)
Procedure: as §1

ALK5 = target: T3, ALK5 (Homo sapiens, UniProt P36897); assay: Cell-free kinase panel (Kinexus); assay type: biochemical; conditions: 10 µM
T3 construct: purchased Kinexus, Canada (screening service)
Procedure: as §1

SRC = target: T4, SRC (Homo sapiens, UniProt P12931); assay: Cell-free kinase panel (Kinexus); assay type: biochemical; conditions: 10 µM
T4 construct: purchased Kinexus, Canada (screening service)
Procedure: as §1

PRK1 = target: T5, PRK1 (Homo sapiens, UniProt Q16512); assay: Cell-free kinase panel (Kinexus); assay type: biochemical; conditions: 10 µM
T5 construct: purchased Kinexus, Canada (screening service)
Procedure: as §1

PAK1 = target: T6, PAK1 (Homo sapiens, UniProt Q13153); assay: Cell-free kinase panel (Kinexus); assay type: biochemical; conditions: 10 µM
T6 construct: purchased Kinexus, Canada (screening service)
Procedure: as §1

LRRK2 = target: T7, LRRK2 (Homo sapiens, UniProt Q5S007); assay: Cell-free kinase panel (Kinexus); assay type: biochemical; conditions: 10 µM
T7 construct: purchased Kinexus, Canada (screening service)
Procedure: as §1

Adenylate kinase = assay: AK activity assay kit; assay type: biochemical
[2] = test system: human recombinant α1β1γ1 AMPK γ1 mutants (R70G, R152G); assay: In vitro kinase assay with mutant AMPK pulled down from HEK-293T cells; assay type: biochemical; conditions: 30 nM Activator-3; γ1 R70G, R152G mutants
Procedure: (§2) A high binding Enzyme Immuno Assay (EIA) 96-well plate (Sigma: Cat# CLS3590) was coated with Acetyl CoA Carboxylase 2 (ACC: 175–271 amino acids) peptide, a direct substrate for AMPK, 100 ng per well (1:1000 ratio, Cat# 12–491, Upstate biotechnology) and incubated overnight at 25 °C. Reaction mixture was incubated at 30 °C for 2 h and reaction was stopped by washing the plate with 0.05% Tween 20 followed by incubation with pACC primary antibody and rabbit secondary antibody as described in cell based ELISA section. Assay buffer is composed of 10 mM DTT, 100 mM magnesium acetate, 50 μM ATP and 10 mM HEPES.
R70 and R152 residues in AMPK γ1 subunit (pDONR223-PRKAG1: purchased from addgene, cat# plasmid#23718) are mutated to glycine using overlapping extension PCR. Subsequently, the mutants were transferred into a triple tagged destination vector (Streptavidin, Flag and Biotin; SFB-pDEST) by using gateway cloning technology. The mutant DNA was transfected into HEK-293T cells using PEI following standard procedures. After 4 h of transfection, media was changed to DMEM containing 10% FBS. Cells were lysed in TENNS lysis buffer (20 mM Tris pH:8.0, 100 mM NaCl, 1 mM EDTA, 10 mM Na2H2P2O7, 10 mM NaF, 10 mM Na3VO4, 0.5% NP40) and subjected to pull down using streptavidin beads followed by biotin elution. To protect the protein from dephosphorylation, cells were treated with 500 μM AICAR prior to lysis. This purified protein was estimated by using nanodrop and taken for in vitro kinase assay to check whether Activator-3 is binding to the mutant AMPK or not, and the activity of the mutant protein was assessed by comparing with the wild type protein activity.

[3] = target: T8, recombinant human AMPK α1β1γ1 (Homo sapiens, UniProt P54619); assay: In vitro AMP kinase assay (pACC ELISA), α1β1γ1; assay type: biochemical
T8 construct: purchased SignalChem P47-10H-05/P48-10H-05 (for all four isozymes together); host or cells: baculovirus expression
Excerpt: (§3) Having observed the effect of Activator-3 on the activation of AMPK in cell based assays, we next examined whether Activator-3 could activate AMPK directly or not. […] The activity of recombinant human AMPK (α1β1γ1, α2β1γ1, α2β2γ2 and α2β2γ3) in the presence of vehicle was considered as 100%. The EC50 of Activator-3 for the activation of α1β1γ1, α2β1γ1 and α2β2γ2 isozymes were similar. However, the activity of Activator-3 against α2β2γ3 was marginally higher (Fig. 1C).
as §2

[4] = Human plasma protein binding; assay type: in vitro ADME; conditions: data not shown
[5] = target: human recombinant AMPK α2β1γ1 (Homo sapiens, UniProt P54619); assay: Phosphatase protection assay (PP2C); assay type: biochemical; set-up: host or cells: baculovirus expression; conditions: 10–100 nM
Procedure: The reaction was stopped by adding SDS-loading dye immediately to the reaction mixtures followed by boiling the samples at 95 °C for 10′. These samples were run on a 10% SDS-PAGE and probed for AMPK and pAMPK (1:1000; Cell Signaling Technologies).

[6] = test system: human recombinant AMPK isozymes; assay: In vitro AMP kinase assays, isozymes taken together; assay type: biochemical
Procedure: as §2

[7] = target: T9, recombinant human AMPK α2β2γ3 (Homo sapiens, UniProt Q9UGI9); assay: In vitro AMP kinase assay (pACC ELISA), α2β2γ3; assay type: biochemical
T9 construct: purchased SignalChem; host or cells: baculovirus expression
Excerpt: as §3, §2

T8 sequence (P54619 whole entry): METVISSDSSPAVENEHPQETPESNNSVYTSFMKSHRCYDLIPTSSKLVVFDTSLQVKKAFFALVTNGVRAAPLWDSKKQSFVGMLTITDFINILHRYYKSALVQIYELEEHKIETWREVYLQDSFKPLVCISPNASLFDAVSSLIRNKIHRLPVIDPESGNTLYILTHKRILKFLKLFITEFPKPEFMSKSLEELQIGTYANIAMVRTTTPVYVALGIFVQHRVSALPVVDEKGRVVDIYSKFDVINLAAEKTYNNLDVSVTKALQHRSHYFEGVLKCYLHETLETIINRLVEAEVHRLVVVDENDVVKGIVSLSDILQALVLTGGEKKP
T8 sequence (Q13131 whole entry partner): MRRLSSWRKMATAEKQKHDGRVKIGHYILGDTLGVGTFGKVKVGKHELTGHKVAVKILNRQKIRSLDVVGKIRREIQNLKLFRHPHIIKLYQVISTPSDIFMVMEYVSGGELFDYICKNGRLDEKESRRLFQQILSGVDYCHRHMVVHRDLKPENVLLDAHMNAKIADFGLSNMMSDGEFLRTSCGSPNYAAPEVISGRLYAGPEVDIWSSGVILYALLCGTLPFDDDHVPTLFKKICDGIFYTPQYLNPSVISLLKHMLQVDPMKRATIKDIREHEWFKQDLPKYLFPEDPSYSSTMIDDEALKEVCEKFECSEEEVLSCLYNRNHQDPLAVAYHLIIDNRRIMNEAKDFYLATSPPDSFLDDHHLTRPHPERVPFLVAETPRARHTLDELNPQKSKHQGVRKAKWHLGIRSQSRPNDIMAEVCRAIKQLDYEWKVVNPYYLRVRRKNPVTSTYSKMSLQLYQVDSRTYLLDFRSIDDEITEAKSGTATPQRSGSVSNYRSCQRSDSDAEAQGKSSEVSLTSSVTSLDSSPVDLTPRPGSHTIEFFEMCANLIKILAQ
T8 sequence (Q9Y478 whole entry partner): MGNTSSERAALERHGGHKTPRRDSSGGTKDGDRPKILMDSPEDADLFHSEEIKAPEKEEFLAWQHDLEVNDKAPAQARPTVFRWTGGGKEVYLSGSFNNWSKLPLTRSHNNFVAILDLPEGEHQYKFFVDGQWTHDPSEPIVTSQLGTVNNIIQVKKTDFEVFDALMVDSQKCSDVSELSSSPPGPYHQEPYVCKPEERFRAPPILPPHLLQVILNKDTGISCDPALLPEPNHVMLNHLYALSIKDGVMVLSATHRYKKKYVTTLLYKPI
T1 sequence (Q15831 whole entry, species assumed): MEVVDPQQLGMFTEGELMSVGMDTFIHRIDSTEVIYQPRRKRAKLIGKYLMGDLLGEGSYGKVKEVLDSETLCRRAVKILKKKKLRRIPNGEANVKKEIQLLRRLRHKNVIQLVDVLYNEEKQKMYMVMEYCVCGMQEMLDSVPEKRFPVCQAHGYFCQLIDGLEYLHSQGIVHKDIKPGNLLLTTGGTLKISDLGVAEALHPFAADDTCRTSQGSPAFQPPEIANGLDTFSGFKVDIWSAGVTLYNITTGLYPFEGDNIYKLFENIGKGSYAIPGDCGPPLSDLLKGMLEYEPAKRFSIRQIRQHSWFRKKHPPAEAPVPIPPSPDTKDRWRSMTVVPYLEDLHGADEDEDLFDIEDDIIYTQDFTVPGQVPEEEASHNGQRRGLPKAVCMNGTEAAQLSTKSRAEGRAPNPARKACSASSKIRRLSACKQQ
T1 sequence (Q7RTN6 whole entry partner, species assumed): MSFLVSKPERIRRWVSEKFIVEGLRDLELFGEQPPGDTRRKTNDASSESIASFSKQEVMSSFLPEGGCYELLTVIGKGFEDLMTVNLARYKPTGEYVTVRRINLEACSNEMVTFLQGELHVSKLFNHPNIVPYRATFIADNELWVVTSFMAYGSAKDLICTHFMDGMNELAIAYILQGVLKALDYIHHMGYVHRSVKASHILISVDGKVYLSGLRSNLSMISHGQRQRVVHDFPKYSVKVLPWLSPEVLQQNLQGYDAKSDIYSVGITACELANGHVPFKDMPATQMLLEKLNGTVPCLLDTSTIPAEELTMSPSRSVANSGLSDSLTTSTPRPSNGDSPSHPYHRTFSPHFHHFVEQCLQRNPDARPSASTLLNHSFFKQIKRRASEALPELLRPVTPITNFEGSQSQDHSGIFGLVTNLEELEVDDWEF
T1 sequence (Q9Y376 whole entry partner, species assumed): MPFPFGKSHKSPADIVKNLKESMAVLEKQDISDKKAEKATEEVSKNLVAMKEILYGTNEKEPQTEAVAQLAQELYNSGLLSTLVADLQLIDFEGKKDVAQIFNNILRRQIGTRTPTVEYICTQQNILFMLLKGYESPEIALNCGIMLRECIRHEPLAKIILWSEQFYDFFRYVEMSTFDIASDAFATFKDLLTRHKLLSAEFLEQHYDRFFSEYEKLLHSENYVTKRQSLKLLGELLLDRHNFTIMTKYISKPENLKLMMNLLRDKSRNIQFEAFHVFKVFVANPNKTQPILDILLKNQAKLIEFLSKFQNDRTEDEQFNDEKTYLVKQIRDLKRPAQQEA
T9 sequence (Q9UGI9 whole entry): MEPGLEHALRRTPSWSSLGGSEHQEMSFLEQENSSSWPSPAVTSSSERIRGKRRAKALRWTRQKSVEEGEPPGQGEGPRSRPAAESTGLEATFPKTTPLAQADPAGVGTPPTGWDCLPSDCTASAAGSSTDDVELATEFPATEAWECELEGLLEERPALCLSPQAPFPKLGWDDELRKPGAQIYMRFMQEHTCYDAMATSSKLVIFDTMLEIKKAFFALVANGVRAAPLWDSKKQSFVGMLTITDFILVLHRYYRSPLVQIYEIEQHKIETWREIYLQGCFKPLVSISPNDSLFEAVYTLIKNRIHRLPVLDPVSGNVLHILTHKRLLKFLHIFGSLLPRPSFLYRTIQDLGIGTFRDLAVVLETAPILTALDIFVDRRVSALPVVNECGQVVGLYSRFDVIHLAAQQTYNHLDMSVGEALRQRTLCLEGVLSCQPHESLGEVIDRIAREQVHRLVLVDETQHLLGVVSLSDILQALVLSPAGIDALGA
T9 sequence (P54646 whole entry partner): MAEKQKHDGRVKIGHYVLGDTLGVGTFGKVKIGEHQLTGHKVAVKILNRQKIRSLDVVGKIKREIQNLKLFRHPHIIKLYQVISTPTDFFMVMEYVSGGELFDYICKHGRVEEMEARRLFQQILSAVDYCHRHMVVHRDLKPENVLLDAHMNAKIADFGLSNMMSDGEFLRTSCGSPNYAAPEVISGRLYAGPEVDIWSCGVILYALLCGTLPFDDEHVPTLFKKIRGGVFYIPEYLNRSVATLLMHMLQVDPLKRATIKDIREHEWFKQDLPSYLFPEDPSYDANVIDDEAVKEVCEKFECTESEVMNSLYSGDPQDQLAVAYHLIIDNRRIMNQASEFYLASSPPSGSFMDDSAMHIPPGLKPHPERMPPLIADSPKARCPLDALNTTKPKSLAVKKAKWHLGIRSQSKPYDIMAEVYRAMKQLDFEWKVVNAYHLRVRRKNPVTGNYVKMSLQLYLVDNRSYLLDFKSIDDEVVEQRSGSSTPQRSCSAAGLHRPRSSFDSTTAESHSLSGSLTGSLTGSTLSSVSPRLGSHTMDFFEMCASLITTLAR
T9 sequence (O43741 whole entry partner): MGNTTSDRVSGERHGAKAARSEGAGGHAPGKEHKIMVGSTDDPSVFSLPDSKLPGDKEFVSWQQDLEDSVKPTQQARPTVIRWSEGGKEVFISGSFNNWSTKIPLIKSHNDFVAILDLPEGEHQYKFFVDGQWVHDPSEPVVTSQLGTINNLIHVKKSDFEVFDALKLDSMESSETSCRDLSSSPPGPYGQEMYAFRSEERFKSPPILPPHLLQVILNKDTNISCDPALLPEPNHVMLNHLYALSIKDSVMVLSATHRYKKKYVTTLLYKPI
T5 sequence (Q16512 whole entry, species assumed): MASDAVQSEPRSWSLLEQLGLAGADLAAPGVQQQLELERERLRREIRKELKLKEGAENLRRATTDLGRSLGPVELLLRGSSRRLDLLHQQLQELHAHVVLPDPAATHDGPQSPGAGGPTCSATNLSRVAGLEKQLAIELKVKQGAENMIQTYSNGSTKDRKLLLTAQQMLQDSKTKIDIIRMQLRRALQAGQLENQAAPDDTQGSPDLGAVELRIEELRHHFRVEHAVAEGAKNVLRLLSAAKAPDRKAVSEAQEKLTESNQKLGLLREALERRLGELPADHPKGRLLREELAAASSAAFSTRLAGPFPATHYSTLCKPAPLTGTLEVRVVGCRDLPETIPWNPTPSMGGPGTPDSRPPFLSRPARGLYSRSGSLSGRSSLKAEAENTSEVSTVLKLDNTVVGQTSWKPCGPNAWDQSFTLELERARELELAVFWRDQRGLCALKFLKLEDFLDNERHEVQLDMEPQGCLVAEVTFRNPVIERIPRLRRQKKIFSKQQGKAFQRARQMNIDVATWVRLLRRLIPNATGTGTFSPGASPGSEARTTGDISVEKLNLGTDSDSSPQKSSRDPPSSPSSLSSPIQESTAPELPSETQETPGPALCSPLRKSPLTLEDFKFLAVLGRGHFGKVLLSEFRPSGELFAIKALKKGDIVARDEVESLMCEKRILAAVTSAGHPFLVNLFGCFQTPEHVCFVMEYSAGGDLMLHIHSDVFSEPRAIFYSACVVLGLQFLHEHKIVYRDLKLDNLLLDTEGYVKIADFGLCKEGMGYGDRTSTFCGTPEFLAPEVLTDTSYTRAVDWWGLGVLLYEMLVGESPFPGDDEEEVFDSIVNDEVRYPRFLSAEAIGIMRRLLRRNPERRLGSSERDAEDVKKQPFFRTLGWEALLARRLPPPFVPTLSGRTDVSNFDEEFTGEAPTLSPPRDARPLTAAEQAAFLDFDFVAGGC
human recombinant AMPK α2β1γ1, sequence (P54619 whole entry): as the sequence (P54619 whole entry) above
human recombinant AMPK α2β1γ1, sequence (P54646 whole entry partner): as the sequence (P54646 whole entry partner) above
human recombinant AMPK α2β1γ1, sequence (Q9Y478 whole entry partner): as the sequence (Q9Y478 whole entry partner) above

O=C(O)Cc1csc(Nc2ccc(C(F)(F)F)cc2)n1 [Activator-3, 2-[2-(4-(trifluoromethyl)phenylamino)thiazol-4-yl]acetic acid]
effect on kinase activity, majority of panel [1]: not affected | effect on kinase activity (LKB1; 10 µM): not affected | % Change (LKB1; 200μM, Control 10984 CPM, Test 11638 CPM): 5% | inhibition at 10 µM (CAMKK2): 36% | activity change (ALK5): −61% | activity change (SRC): −71% | activity change (PRK1): −36% | activity change (PAK1): −42% | activity change (LRRK2): −34% | effect on Adenylate kinase activity (Adenylate kinase; 1 µM): minimally affected | effect on Adenylate kinase activity (Adenylate kinase; ≤10 µM): unaffected | AMPK activity of mutant proteins vs wild type [2]: significant reduction | cooperativity of AMPK activation at high ATP ([3]; ATP 2 mM vs 20 µM, Activator-3 0–1 µM): does not exhibit co-operative binding | reduction of AMPK activity stimulated by 100 µM AMP ([3]; Activator-3 1 nM to 10 μM with 100 µM AMP): ~ 50% | EC50 ([3]; read-out: EC50 allosteric activation hα1β1γ1): ~38 nM | fraction unbound [4]: ~0.2 | protection against PP2C mediated dephosphorylation of Thr172 AMPK [5]: provided protection | activation of AMPK [6]: 30–40% | increase of AMPK activity over 100 µM AMP alone ([7]; co-treatment Activator-3 and 100 µM AMP): > 30% | EC50 ([7]; read-out: EC50 allosteric activation hα2β2γ3): ~4 nM
